{"source": "patent US20250296909A1", "about": "“NOVEL BENZENE DERIVATIVE AND IMMUNOSUPPRESSION-RELATED USE THEREOF” (PROVIBIO CO., LTD., priority 2021, published 2025)", "key": {"[1]": {"tested_on": "psoriasis mouse animal model", "experiment": "Psoriasis mouse animal model (imiquimod-induced)", "format": "in vivo, BALB/c mice", "conditions": "40 mg/kg intraperitoneally twice a day", "source_text": "To confirm the therapeutic effect of compounds according to the present invention on psoriasis, a psoriasis animal model was established to evaluate the alleviation of skin lesions and changes in immune cell profiles by administering Compound 69 or Compound 83 via injection.\nTo establish a psoriasis mouse animal model, BALB/c mice (7 weeks old, 20 g, female) were purchased from Hana Biotech Co. and allowed to acclimate to the housing environment for one week. Afterward, the fur on the dorsal area of the mice was initially shaved using a shaver, followed by complete removal with depilatory cream (Nicrin Cream, comprising thioglycolic acid 80%, manufactured by ILDONG Pharmaceutical CO., LTD). The mice were then housed for 24 hours to confirm any wounds on their backs.\nSubsequently, in order to verify the preventive and therapeutic effects of compounds according to the present invention on psoriasis, five experimental groups were established as shown in FIG. 7 and Table 5. From the second to the fifth group, Aldara® cream was applied once daily for two weeks (14 days, total of 14 applications) at a dose of 80 mg (imiquimod, 4 mg) per mouse to induce psoriasis. Furthermore, to compare the preventive and therapeutic effects of compounds according to the present invention (Compound 69 and Compound 83) on psoriasis, 40 mg/kg of the compound per mouse was dissolved in DMSO corresponding to 10% of the dosing volume, and then diluted in a mixture of Cremophor EL-PEG 400-distilled water to achieve a final ratio of DMSO: Cremophor EL:PEG 400:distilled water to 1:1:4:4 (v/v/v/v). Subsequently, the respective injections were intraperitoneally administered at a dose of 100 μL per mouse, twice a day with a 12-hour interval. For the Vehicle control group, injections excluding the drug but comprising the vehicle solution (DMSO: Cremophor EL:PEG 400:distilled water=1:1:4:4 (v/v/v/v)) were administered at a dose of 100 μL per mouse, twice a day with a 12-hour interval.\nTo assess the impact of each compound on immune cells in vivo, the spleens of mice treated with each compound were harvested, and cells were extracted, and cells were suspended in MACS buffer (2 mM EDTA, 0.5% FBS, 137 mM NaCl, 2.7 mM KCl, 10 mM Na2HPO4, 1.8 mM KH2PO4, Miltenyi Biotech.). For flow cytometry analysis, each mouse's splenocytes were aliquoted at 5×10^5 cells per FACS tube (5 mL round tube, Falcon). To prevent non-specific antibody binding, each tube was treated with 1 μg/mL of anti-mouse CD16/CD32 (InVivoMAb) for 30 minutes, followed by centrifugation at 13,000 rpm for 5 minutes, and resuspended in 100 μL of MACS buffer. Subsequent experiments were conducted depending on the type of immune cells to be examined.\n(§1) For B cells, each FACS tube was stained with 1 μg/mL of FITC-conjugated anti-B220 antibody (eBioscience™) at 4° C. for 30 minutes, followed by washing with 2 mL of MACS buffer. Subsequently, each tube was centrifuged at 15,000 rpm for 5 minutes, the supernatant was removed, and the precipitated cells were fixed using 200 μL of 4% paraformaldehyde solution.\nFor T cells, each FACS tube was stained with 1 μg/mL of PerCP-Cy5.5-conjugated anti-CD3 antibody (Biolegend), FITC-conjugated anti-CD8 antibody (eBioscience™) and Cy7-conjugated anti-CD4 antibody (eBioscience™) at 4° C. for 30 minutes, followed by washing with 2 mL of MACS buffer. Subsequently, each tube was centrifuged at 15,000 rpm for 5 minutes, the supernatant was removed, and the precipitated cells were fixed using 200 μL of 4% paraformaldehyde solution.\nas §1, with “macrophages,” for “B cells,”, “anti-CD11b” for “anti-B220”"}, "spleen T cells": {"tested_on": "spleen T cells", "experiment": "T cell proliferation inhibition (CFSE, FACS), CD3/CD28-activated spleen T cells", "format": "cell-based, C57BL/6 mice", "in_short": "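Proliferation inhibition is expressed as a percentage versus CD3/CD28-stimulated DMSO controls, from CFSE dye dilution measured by FACS after 3 days at 37 °C. Compounds at 10, 30 and 50 μM (triplicate) on anti-CD3/CD28-activated (0.5 μg/mL each) C57BL/6 mouse spleen T cells, 2×10^5 per well.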"}, "[2]": {"conditions": "flow cytometry, versus psoriasis groups, FIG. 10"}}}
{"smiles": "CCCCCCCCCCCCNC(=O)c1cccnc1N", "note": "[Compound 69]", "values": [{"measurement": "skin lesions (erythema, thickness, exfoliation of back skin)", "setting": "[1]; 14 days, FIG. 8", "value": "either minimally present or hardly observed"}, {"measurement": "hyperkeratosis, parakeratosis, irregular acanthosis, infiltration of inflammatory cells (H&E staining)", "setting": "[1]; 14 days, FIG. 9", "value": "either minimally present or hardly observed"}, {"measurement": "proportion of B cells in the spleen", "setting": "[1]; [2]", "value": "increase"}, {"measurement": "proportion of CD11b granulocytes in the spleen", "setting": "[1]; [2]", "value": "decreased"}, {"measurement": "proportion of T cells in the spleen", "setting": "[1]; [2]", "value": "increase"}, {"measurement": "inhibition at 10 µM", "setting": "spleen T cells; Mus musculus, T-cell, 72 h, Table 2, 10 μM, 3 days, relative to CD3/CD28+DMSO, read-out: Proliferation inhibition rate (%)", "value": 99, "unit": "%"}, {"measurement": "inhibition at 30 µM", "setting": "spleen T cells; Mus musculus, T-cell, 72 h, Table 2, 30 μM, 3 days, relative to CD3/CD28+DMSO, read-out: Proliferation inhibition rate (%)", "value": 100, "unit": "%"}, {"measurement": "inhibition at 50 µM", "setting": "spleen T cells; Mus musculus, T-cell, 72 h, Table 2, 50 μM, 3 days, relative to CD3/CD28+DMSO, read-out: Proliferation inhibition rate (%)", "value": 100, "unit": "%"}, {"measurement": "cell proliferation read by FACS (FIG. 2)", "setting": "spleen T cells; concentrations ranging from 10 to 30 μM", "value": "inhibition of cell proliferation"}]}
